For assay [1] the following is noted: either alone or in the presence of a statin; cited from earlier work.
The test system of another assay is Caco-2 cells. Kind of assay: Cholesterol absorption inhibition assay (in vitro), [14C] cholesterol mixed micelles. The format is cell-based. The settings on record: Homo sapiens, 24 hours, read-out: cholesterol absorption inhibitory activity; for inhibition at 12.5 µM: concentration of 12.5 μM. In short, it runs like this: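 Caco-2 cells cultured 2 weeks, then incubated 24 h at 37° C with [14C] cholesterol mixed micelles (oleate, phosphatidylcholine, taurocholate) plus compound at 0.5 to 25 μM final. Lipids extracted, cholesteryl ester separated by TLC and quantified by imaging plate; inhibition as background-corrected percentage of solvent control.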

Assay [2] relates to hamsters fed a high cholesterol diet. Kind of assay: Measurement of lipid lowering effect in hamsters fed a high cholesterol diet. The format is in vivo, Male Golden Syrian hamsters. The settings on record: Mesocricetus auratus, po, 168 h, dose 0.1 mg/kg, gavage once daily, 7 days. In short, it runs like this: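 Male Golden Syrian hamsters (6/group) on 0.5% cholesterol diet, dosed by gavage once daily in corn oil at 0.01 to 10 mg/kg; serum and liver sampled 4 h after last dose. TC, TG and LDL-C measured enzymatically; effects expressed as % suppression versus control and normal-diet groups.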

[3] abbreviates: read-out: serum LDL-C lowering effect (suppression rate of an increase in serum LDL-C concentration).
[4] abbreviates: read-out: serum TC lowering effect (suppression rate of an increase in serum TC concentration).

Read-outs that look alike come from different tables or passages of the source.

On to `O=C1[C@H](CC[C@H](O)c2ccc(F)cc2)[C@@H](c2ccc(O)cc2)N1c1ccc(F)cc1` [Ezetimibe, (3R,4S)-3-[(3S)-3-(4-fluorophenyl)-3-hydroxypropyl]-1-(4-fluorophenyl)-4-(4-hydroxyphenyl)azetidin-2-one], for which the LDL cholesterol-lowering effect in assay [1] is on record as 15-20%.

As to `O=C1[C@H](SC[C@H](O)c2ccc(F)cc2Cl)[C@@H](c2ccc(O)cc2)N1c1ccc(-c2cccnc2)cc1` [Example 90, (3R,4R)-3-[(2R)-2-(2-chloro-4-fluorophenyl)-2-hydroxyethylthio]-4-(4-hydroxyphenyl)-1-[4-(pyridin-3-yl)phenyl]azetidin-2-one], the inhibition at 12.5 µM in the assay on Caco-2 cells is ≥ 60%. The inhibition in vivo at 0.1 mg/kg in assay [2] (setting [3]) and in assay [2] (setting [4]) was ≥ 50% each time.

For the molecule `COc1ccc(-c2ccc(N3C(=O)[C@H](SC[C@H](O)c4ccc(F)cc4)[C@H]3c3ccc(O)cc3)cc2)cn1` [Example 14, (3R,4R)-3-[(2R)-2-(4-fluorophenyl)-2-hydroxyethylthio]-4-(4-hydroxyphenyl)-1-[4-(6-methoxypyridin-3-yl)phenyl]azetidin-2-one], the inhibition at 10 µM with Caco-2 cells (concentration of 10 μM) was ≥ 50%. In addition, the inhibition in vivo at 0.1 mg/kg in assay [2] (read-out: serum TG lowering effect (serum TG lowering rate)) was ≥ 20%.

On to `O=C1[C@H](SC[C@H](O)c2ccc3sccc3c2)[C@@H](c2ccc(O)cc2)N1c1ccc(-c2cccnc2)cc1` [Example 83, (3R,4R)-3-((2R)-2-benzo[b]thiophen-5-yl-2-hydroxyethylthio)-4-(4-hydroxyphenyl)-1-[4-(pyridin-3-yl)phenyl]azetidin-2-one], for which the inhibition at 12.5 µM with Caco-2 cells was ≥ 60%. Besides, the inhibition in vivo at 0.1 mg/kg in assay [2] (setting [3]) and in assay [2] (setting [4]) was ≥ 50% each time.
